Results as given in patent US7297523B2, “Human elongase genes and uses thereof” (Xenon Pharmaceuticals Inc., priority 2000, dated 2007).

Experiments:
D6D = D6D activity in liver microsomes from STZ-induced diabetic rats; format: in vivo, rat; settings: compared to control
Description: (§1) The desaturase and elongase enzyme activities in liver microsomes from streptozotocin (STZ)-induced diabetic rats was assayed at 2 and 7 weeks post-induction. Table 1 indicates the decrease in activities compared to a control, observed during the course of the experiment. An equivalent decrease in elongation activity in STZ-induced diabetic rats has been previously reported (Suneja et al., 1990, Biochim. Biophys. Acta, 1042: 81-85).

Elongase = Elongase activity in liver microsomes from STZ-induced diabetic rats; format: in vivo, rat; settings: compared to control
Description: as §1

D5D = D5D activity in liver microsomes from STZ-induced diabetic rats; format: in vivo, rat; settings: compared to control
Description: as §1

Leukocytes [1] = assay: Conversion of 18:3n-6 into 20:3n-6 in leukocytes from STZ-induced diabetic rats; format: in vivo, rat
Leukocytes [2] = assay: Conversion of 18:2n-6 into 20:2n-6 in leukocytes from STZ-induced diabetic rats; format: in vivo, rat; settings: for Conversion of 18:2n-6 into 20:2n-6: leukocytes incubated for 24 h, mean ± S.D. of 6 rats
18:3n-6 = assay: Elongation of [1-14C]18:3n-6 in yeast expressing human elongases (RP-HPLC); settings: for Percent Elongation of 18:3n-6 to 20:3: product 20:3n-6; for Percent Elongation of 18:3n-6 to 22:3: product 22:3n-6
Description: (§2) For the expression of ELG1, ELG2, ELG3, ELG4, ELG5, ELG6 or ELG7 the yeast were transformed with pTh1009.1, pTh1014.1, pTh1015.1, pTh1021.1, pTh1018.1, pTh1041.1 or pTh1044.1, respectively. For the expression of ELG1/V5-His, ELG2/V5-His, ELG3/V5-His, ELG4/V5-His, ELG5/V5-His, ELG6/V5 -His or ELG7/V5-His the yeast were transformed with pTh1009.2, pTh1014.2, pTh1017.1, pTh1021.2, pTh1019.1, pTh1042.1 or pTh1045.1, respectively. Recombinant yeast cells were selected on SC-U medium.
(§3) Transformed yeast (approximately 3.2×10^6 cells/ml; O.D.600 0.4) were incubated in a 125 ml Erlenmeyer containing 10 ml of SC-U medium with 1% raffinose, 1% tergitol and 25 μM of the lithium salts of either [1-^14C]18:3n-3 (1 μCi), [1-^14C]18:3n-6 (1 μCi), [1-^14C]20:4n-6 (2 μCi), or [1-^14C]20:5n-3 (2 μCi). After 4 h incubation in an orbital incubator at 270 rpm and 30° C., cells reached the log phase and the transgene, expression was induced with galactose 30° C., cells reached the log phase and the transgene expression was induced with galactose (2% final concentration). The yeast were incubated for an additional 19 h and then harvested by centrifugation at 5000×g for 10 minutes at 4° C.
(§4) Cells were washed with Tris-HCl buffer (100 mM, pH 8.0) containing 0.1% BSA and total lipids were extracted as described below. The radioactivity from aliquots of the incubation medium, supernatant and cells was determined by liquid scintillation counting using a LS6500-Scintillation System (Beckman).
(§5) Alternatively, cells were resuspended in 1.5 ml of water and saponified with 2 ml of 10% KOH in ethanol. The total lipid extracts or the free fatty acids from the saponified samples were methylated using boron trifluoride in methanol at 90° C. for 30 min. The resultant methyl esters (FAME) were analyzed as described below.
(§6) Analyses of radiolabelled FAME were carried out on a Hewlett Packard 1090, series II chromatograph equipped with a diode array detector set at 205 nm, a radioisotope detector (model 171, Beckman, CA) with a solid scintillation cartridge (97% efficiency for ^14C-detection) and a reverse phase ODS (C-18) Beckman column (250 mm×4.6 mm i.d.; 5 μm particle size) attached to a pre-column with a μBondapak C-18 (Beckman) insert. FAME were separated isocratically with acetonitrile/water (95.5 v/v) at a flow rate of 1 ml/min and were identified by comparison with authentic standards. Alternatively, the eluted FAME were collected and the solvent evaporated. FAME were re-dissolved in hexane for further analysis by gas chromatography.
20:4n-6 = assay: Elongation of [1-14C]20:4n-6 in yeast expressing human elongases (RP-HPLC); settings: untagged elongase, 25 μM substrate
Description: as §2, §3, §4, §5, §6
18:3n-3 = assay: Elongation of [1-14C]18:3n-3 in yeast expressing human elongases (RP-HPLC); settings: untagged elongase; 25 μM substrate; product 20:3n-3
Description: as §2, §3, §4, §5, §6
20:5n-3 = assay: Elongation of [1-14C]20:5n-3 in yeast expressing human elongases (RP-HPLC); settings: untagged elongase; 25 μM substrate; product 22:5n-3
Description: as §2, §3, §4
Alternatively, cells were resuspended in 1.5 ml of water and saponified with 2 ml of 10% KOH in ethanol. The total lipid extracts or the free fatty acids from the saponified samples were methylated using boron trifluoride in methanol at 90° C. for 30 min. The resultant methyl esters (FAME) were analyzed as described below. […]

[3] = untagged elongase, 25 μM substrate

CN(N=O)C(=O)N[C@H]1C(O)O[C@H](CO)[C@@H](O)[C@@H]1O (stereo partly drawn) [STZ, 2-desoxy-2-methylnitrosoamino carbonyl amino-D-glucopyranose] was tested, and the “% Decrease of D6D activity (18:2n-6 → 18:3n-6)” value (D6D; 2 weeks post-induction) was 28%, the “% Decrease of D6D activity (18:2n-6 → 18:3n-6)” value (D6D; 7 weeks post-induction) was 33% and the “% Decrease of Elongase activity (18:3n-6 → 20:3n-6)” value (Elongase; 2 weeks post-induction) was 46%. For the same molecule, the “% Decrease of Elongase activity (18:3n-6 → 20:3n-6)” value (Elongase; 7 weeks post-induction) was 43%, the “% Decrease of D5D activity (20:3n-6 → 20:4n-6)” value (D5D; 2 weeks post-induction) was 33% and the “% Decrease of D5D activity (20:3n-6 → 20:4n-6)” value (D5D; 7 weeks post-induction) was 41%. The “Conversion of 18:3n-6 into 20:3n-6” value (Leukocytes [1]; 2 weeks post-induction, incubation time 0 h) was 0 pmol of 20:3n-6 produced/mg cellular protein, the “Conversion of 18:3n-6 into 20:3n-6” value (Leukocytes [1]; 2 weeks post-induction, incubation time 0.16 h, mean ± S.D. of 6 rats) was 50 ± 8 pmol of 20:3n-6 produced/mg cellular protein and the “Conversion of 18:3n-6 into 20:3n-6” value (Leukocytes [1]; 2 weeks post-induction, incubation time 0.5 h, mean ± S.D. of 6 rats) was 115 ± 26 pmol of 20:3n-6 produced/mg cellular protein. For the same molecule, the “Conversion of 18:3n-6 into 20:3n-6” value (Leukocytes [1]; 2 weeks post-induction, incubation time 1 h, mean ± S.D. of 6 rats) was 288 ± 23 pmol of 20:3n-6 produced/mg cellular protein, the “Conversion of 18:3n-6 into 20:3n-6” value (Leukocytes [1]; 7 weeks post-induction, incubation time 0 h) was 0 pmol of 20:3n-6 produced/mg cellular protein and the “Conversion of 18:3n-6 into 20:3n-6” value (Leukocytes [1]; 7 weeks post-induction, incubation time 0.16 h, mean ± S.D. of 6 rats) was 37 ± 9 pmol of 20:3n-6 produced/mg cellular protein. The “Conversion of 18:3n-6 into 20:3n-6” value (Leukocytes [1]; 7 weeks post-induction, incubation time 0.5 h, mean ± S.D. of 6 rats) was 112 ± 10 pmol of 20:3n-6 produced/mg cellular protein, the “Conversion of 18:3n-6 into 20:3n-6” value (Leukocytes [1]; 7 weeks post-induction, incubation time 1 h, mean ± S.D. of 6 rats) was 190 ± 92 pmol of 20:3n-6 produced/mg cellular protein and the “Conversion of 18:3n-6 into 20:3n-6” value (Leukocytes [1]; 7 weeks post-induction, incubation time 24 h, mean ± S.D. of 6 rats) was 1008 ± 98 pmol of 20:3n-6 produced/mg cellular protein. For the same molecule, the “activity of the elongation system (18:3n-6 into 20:3n-6)” value (Leukocytes [1]; STZ group versus control, regardless of the time after the last I.P. STZ injection) was “significant increase”, the “Conversion of 18:2n-6 into 20:2n-6” value (Leukocytes [2]; 2 weeks post-induction) was 322 ± 119 pmol of 20:2n-6 produced/mg cellular protein and the “Conversion of 18:2n-6 into 20:2n-6” value (Leukocytes [2]; 7 weeks post-induction) was 147 ± 22 pmol of 20:2n-6 produced/mg cellular protein. For the same molecule, the “changes in the elongation of 18:2n-6 to 20:2n-6” value (Leukocytes [2]; leukocytes from animals sacrificed 7 weeks after the STZ treatment) was “no significant changes” and the “reduction in the elongation of 18:2n-6 to 20:2n-6” value (Leukocytes [2]; leukocytes obtained 2 weeks after the STZ injection) was “approximately 50%”.

B1: ELG2: human PUFA elongase expressed in yeast from plasmid pTh1014.1 (protein, UniProt Q9NYP7 1-299, looked up)
Very long chain fatty acid …: MEHFDASLSTYFKALLGPRDTRVKGWFLLDNYIPTFICSVIYLLIVWLGPKYMRNKQPFSCRGILVVYNLGLTLLSLYMFCELVTGVWEGKYNFFCQGTRTAGESDMKIIRVLWWYYFSKLIEFMDTFFFILRKNNHQITVLHVYHHASMLNIWWFVMNWVPCGHSYFGATLNSFIHVLMYSYYGLSSVPSMRPYLWWKKYITQGQLLQFVLTIIQTSCGVIWPCTFPLGWLYFQIGYMISLIALFTNFYIQTYNKKGASRRKDHLKDHQNGSMAAVNGHTNSFSPLENNVKPRKLRKD
B1 was tested, and the “Percent Elongation of 18:3n-6 to 20:3” value (18:3n-6; V5-His tagged elongase) was 73%, the “Percent Elongation of 18:3n-6 to 22:3” value (18:3n-6; V5-His tagged elongase) was 11% and the “Percent Elongation of 18:3n-6 to 20:3” value (18:3n-6; [3]) was 62%. The “Percent Elongation of 18:3n-6 to 22:3” value (18:3n-6; [3]) was 3%, the “Percent Elongation of 20:4n-6 to 22:4” value (20:4n-6; product 22:4n-6) was 39% and the “Percent Elongation of 20:4n-6 to 24:4” value (20:4n-6; product 24:4n-6) was 1%. The “Percent Elongation of 18:3n-3 to 20:3” value (18:3n-3) was 16% and the “Percent Elongation of 20:5n-3 to 22:5” value (20:5n-3) was 59%.
